What was measured:
Test in all cases: normalised viability (% of control), CellTiter-Blue; higher = more viable cells (about 100 = DMSO control)
[1] = test system: BT-474; settings: 100 nM; incubation time: 72 h
Description: (§1)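 DSRT, CellTiter-Blue viability, 72 h incubation. Signal is normalised to DMSO and benzethonium chloride controls. Value is the normalised response at dose 3.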

[2] = test system: BT-549; settings: 100 nM; incubation time: 72 h
Description: as §1

[3] = test system: CAL-120; settings: 100 nM; incubation time: 72 h
Description: as §1

[4] = test system: CAL-148; settings: 10 nM; incubation time: 72 h
Description: as §1

[5] = test system: CAL-51; settings: 10 nM; incubation time: 72 h
Description: as §1

[6] = test system: CAL-85-1; settings: 10 nM; incubation time: 72 h
Description: as §1

[7] = test system: DU-4475; settings: 10 nM; incubation time: 72 h
Description: as §1

[8] = test system: HCC1143; settings: 100 nM; incubation time: 72 h
Description: as §1

[9] = test system: HCC1599; settings: 100 nM; incubation time: 72 h
Description: as §1

[10] = test system: HCC1937; settings: 100 nM; incubation time: 72 h
Description: as §1

[11] = test system: HDQ-P1; settings: 10 nM; incubation time: 72 h
Description: as §1

[12] = test system: Hs578T; settings: 100 nM; incubation time: 72 h
Description: as §1

[13] = test system: MDA-MB-231; settings: 100 nM; incubation time: 72 h
Description: as §1

[14] = test system: MDA-MB-436; settings: 100 nM; incubation time: 72 h
Description: as §1

[15] = test system: MDA-MB-453; settings: 10 nM; incubation time: 72 h
Description: as §1

[16] = test system: MDA-MB-468; settings: 100 nM; incubation time: 72 h
Description: as §1

[17] = test system: MFM-223; settings: 100 nM; incubation time: 72 h
Description: as §1

[18] = test system: SK-BR-3; settings: 100 nM; incubation time: 72 h
Description: as §1

[19] = test system: BT-474; settings: incubation time: 72 h
Summary of the method: (§2)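 384-well plates were pre-loaded with compound in 5 µl medium before 20 µl of breast cancer cell suspension was seeded. Following 72 h incubation, 2.5 µl CellTiter-Blue reagent was added for 2 h at 37 °C. Fluorescence was read at 560/590 nm and plates were normalised to vehicle (100) and a positive kill control (0), checked by Z'-factor. Normalised viability is reported at a single listed concentration of the series.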

[20] = test system: BT-549; settings: incubation time: 72 h
Summary of the method: as §2

[21] = test system: CAL-120; settings: incubation time: 72 h
Summary of the method: as §2

[22] = test system: CAL-148; settings: incubation time: 72 h
Summary of the method: as §2

[23] = test system: CAL-51; settings: incubation time: 72 h
Summary of the method: as §2

[24] = test system: CAL-85-1; settings: incubation time: 72 h
Summary of the method: as §2

[25] = test system: DU-4475; settings: incubation time: 72 h
Summary of the method: as §2

[26] = test system: HCC1143; settings: incubation time: 72 h
Summary of the method: as §2

[27] = test system: HCC1599; settings: incubation time: 72 h
Summary of the method: as §2

[28] = test system: HCC1937; settings: incubation time: 72 h
Summary of the method: as §2

[29] = test system: HDQ-P1; settings: incubation time: 72 h
Summary of the method: as §2

[30] = test system: Hs578T; settings: incubation time: 72 h
Summary of the method: as §2

[31] = test system: MDA-MB-231; settings: incubation time: 72 h
Summary of the method: as §2

[32] = test system: MDA-MB-436; settings: incubation time: 72 h
Summary of the method: as §2

[33] = test system: MDA-MB-453; settings: incubation time: 72 h
Summary of the method: as §2

[34] = test system: MDA-MB-468; settings: incubation time: 72 h
Summary of the method: as §2

[35] = test system: MFM-223; settings: incubation time: 72 h
Summary of the method: as §2

[36] = test system: SK-BR-3; settings: incubation time: 72 h
Summary of the method: as §2

O=P(O)(O)C(O)(Cn1ccnc1)P(=O)(O)O [Zoledronic acid]
Settings | normalised viability [%]
[1] | 102
[2] | 101
[3] | 94.2
[4] | 86.5
[5] | 116
[6] | 90.2
[7] | 97.7
[8] | 89.1
[9] | 109
[10] | 102
[11] | 91.5
[12] | 85.3
[13] | 93.9
[14] | 113
[15] | 96.2
[16] | 117
[17] | 91.7
[18] | 91

normalised viability [%]
Settings | 3 nM | 10 nM | 30 nM | 100 nM | 1000 nM | 10000 nM
[19] | – | 103 | – | – | 103 | 117
[20] | – | 92.5 | – | – | 108 | 91.3
[21] | – | 81.2 | – | – | 98 | 91.8
[22] | 92.2 | – | 84.4 | 92.6 | – | –
[23] | 108 | – | 116 | 102 | – | –
[24] | 91.6 | – | 83.2 | 96.5 | – | –
[25] | 107 | – | 95.8 | 99.8 | – | –
[26] | – | 82 | – | – | 85.2 | 85.2
[27] | – | 94.1 | – | – | 75.3 | 95.4
[28] | – | 96.4 | – | – | 95.5 | 99.7
[29] | 94.6 | – | 91.9 | 84.1 | – | –
[30] | – | 95.1 | – | – | 113 | 98.2
[31] | – | 92.2 | – | – | 89.3 | 95.9
[32] | – | 95 | – | – | 89.2 | 94.3
[33] | 101 | – | 96 | 101 | – | –
[34] | – | 107 | – | – | 102 | 111
[35] | – | 99.3 | – | – | 86.5 | 97.2
[36] | – | 106 | – | – | 93.9 | 96.5
